These results are taken from patent US9309247B2, “2-substituted imidazo[4,5-D]phenanthroline derivatives and their use in the treatment of cancer” (Aptose Biosciences Inc., priority 2013, dated 2016).

In experiment [1] the test system is brain cancer/tumour cells SK-N-AS. Nature of the experiment: XTT cell proliferation assay, SK-N-AS. It is filed as cell-based, human. The settings on record: 5 days incubation, read-out: Antiproliferative activity, Brain SK-N-AS. On the procedure:
(§1) Exemplary compounds 1-8 were tested for anti-cancer activity in vitro using human renal cancer cells (ACHN and CAK-1), human pancreatic cells (BXPC3 and SU-86-86), human prostate cancer cell (DU14), human colon carcinoma cells (HT-29 and KM-12), leukemia cells (HL60), brain cancer/tumour cells (SK-A-AS, U87-MG), and human non-small cell lung cancer cells (H460). Compounds 1-8 are the specific embodiments of Formula (I) and Formula (IV) as described above in this application.
(§2) The cells were maintained as a monolayer in a growth medium; McCoy's 5A modified medium (Sigma, St. Louis, Mo.), supplemented with 2 mM L-glutamine (Gibco, Grand Island, N.Y.), 10% fetal bovine serum (FBS) (Multicell, WISENT Inc. St-Bruno, QC), antibiotic-antimycotic (Multicell), at 37° C. in a 5% CO2-humidified incubator. Cells were transferred onto 150 mm tissue culture plates and grown until sub-confluency (70-80%) prior to their use. The in vitro antiproliferative activity of compounds was evaluated by incubating the cells with varying concentrations of exemplary compounds as shown in Table 1 for 5 days. The efficacy of these compounds in this cell proliferation assay was measured based in the ability of live cells to reduce the tetrazolium salt XTT to orange colored compounds of formazan (XTT cell proliferation kit IT, Roche Applied Science, Montreal, QC).

Experiment [2] has as its system human non-small cell lung cancer cells H460. Kind of experiment: XTT cell proliferation assay, H460. It is filed as cell-based. The settings on record: 5 days incubation, read-out: Antiproliferative activity, NSCLC H460. On the procedure:
as §1, §2
A general note: Formazan colour is commonly taken as a measure of viable cells.

The test system of experiment [3] is human colon carcinoma cells HT-29. Nature of the experiment: XTT cell proliferation assay, HT-29. It is filed as cell-based. The settings on record: 5 days incubation, read-out: Antiproliferative activity, Colon HT-29. On the procedure: as §1, §2
Experiment [4] deals with human renal cancer cells ACHN. Nature of the experiment: XTT cell proliferation assay, ACHN. It is filed as cell-based. Particulars: 5 days incubation, read-out: Antiproliferative activity, Kidney ACHN. Here is the method:
as §1, §2

A further experiment relates to EL4 (mouse, lymphoma). Kind of experiment: Cell growth inhibition assay, EL4. It is filed as cell-based. Particulars: five days of incubation, XTT; read-out: IC50 EL4 (ms). Here is the method: (§3) In this study, compounds 1-8 were screened in vitro against a panel of four mouse lymphoma cell lines and two human lymphoma cell line for cell growth inhibition activity. Following treatment, half maximal inhibitory concentrations (IC50) were determined with the objective of selecting the most efficacious compounds for evaluation of in vitro absorption, distribution, metabolism, and excretion (ADME) screening.
(§4) Similarly, human Burkitt's lymphoma Ramos cells (ATCC CRL-1596) were grown in suspension in Roswell Park Memorial Institute (RPMI) 1640 medium supplemented with 10% fetal bovine serum (FBS), 10 mM HEPES KOH pH 7.4, and 2 mM sodium pyruvate. Mouse P388D1 (ATCC CCL-46) and WR19L (ATCC TIB-52) cells were grown in suspension in Dulbecco's Modified Eagle Medium (DMEM) with 10% fetal bovine serum (FBS), 10 mM HEPES, and 2 mM sodium pyruvate. Mouse WEHI231 (ATCC CRL-1702) and EL4 (ATCC TIB-39) cells were grown in suspension in DMEM with 10% fetal bovine serum (FBS), 10 mM HEPES KOH pH 7.4, 2 mM sodium pyruvate, and 0.05 mM β-mercaptoethanol. All cells were maintained at 37° C. in an atmosphere of 5% CO2 in air. Logarithmically growing cells were routinely sub-cultured twice weekly. Briefly, cells were collected by centrifugation, resuspended in pre-warmed media, and diluted 1:10 into a 75 cm^2 flask.
(§5) Cells were subcultured and 4×10^3 cells (in 50 μL) were transferred to each well in a Falcon 96-well tissue culture plate. Exemplary compounds were dissolved in pure dimethyl sulphoxide (DMSO) at a concentration of 10 mM. From this 10 mM stock solution, 12 successive serial dilutions were made in DMSO (2.5 fold dilutions), ranging from 0.52 μM to 10 mM. Using these stock dilutions, 5 μL of each were added to 500 μL of media, and 50 μL of this was added to the cells. The final concentrations being tested ranged from 0.0026 μM to 50 μM. Each concentration was tested in triplicate, and DMSO and untreated cells were also included as controls. After five days of incubation with the compounds, cell viability was determined using the XTT cell proliferation kit (Roche, Cat. No. 11 465 015 001). Following the XTT protocol, 4.5-24 hours after addition of the reagent, the plates were read in a μQuant 96-well plate spectrophotometer (Biotek Instruments Inc.) and the results analyzed to determine the IC50.

The subject of experiment [5] is WEHI 231 (mouse, B-cell lymphoma). Nature of the experiment: Cell growth inhibition assay, WEHI231. It is filed as cell-based. The settings on record: five days of incubation, XTT; read-out: IC50 WEHI231 (ms). Here is the method:
as §3, §4, §5

The subject of a further experiment is leukemia cells HL60. Nature of the experiment: XTT cell proliferation assay, HL60. It is filed as cell-based, human. Particulars: 5 days incubation, read-out: Antiproliferative activity, Leuk. HL60. On the procedure:
as §1, §2

The subject of experiment [6] is non-small cell lung cancer cells EKVX. Nature of the experiment: XTT cell proliferation assay, EKVX. It is filed as cell-based, human. The settings on record: 5 days incubation, read-out: Antiproliferative activity, NSCLC EKVX. On the procedure:
[The procedure below names another cell line; the source lists this cell line under the same test.] as §1, §2

In experiment [7] the test system is non-small cell lung cancer cells H226. Kind of experiment: XTT cell proliferation assay, H226. It is filed as cell-based, human. Particulars: 5 days incubation, read-out: Antiproliferative activity, NSCLC H226. On the procedure: [The procedure below names another cell line; the source lists this cell line under the same test.] as §1, §2
The subject of experiment [8] is human pancreatic cells BXPC3. Nature of the experiment: XTT cell proliferation assay, BXPC3. It is filed as cell-based. Particulars: 5 days incubation, read-out: Antiproliferative activity, Pancreas BXPC3. Here is the method: as §1, §2
Experiment [9] has as its system human pancreatic cells SU-86-86. Nature of the experiment: XTT cell proliferation assay, SU-86-86. It is filed as cell-based. The settings on record: 5 days incubation, read-out: Antiproliferative activity, Pancreas SU-86-86. On the procedure:
as §1, §2

In experiment [10] the test system is human renal cancer cells CAKI-1. Nature of the experiment: XTT cell proliferation assay, CAKI-1. It is filed as cell-based. The settings on record: 5 days incubation, read-out: Antiproliferative activity, Kidney CAKI-1. Here is the method: as §1, §2
In experiment [11] the test system is non-small cell lung cancer cells HOP-92. Nature of the experiment: XTT cell proliferation assay, HOP-92. It is filed as cell-based, human. The settings on record: 5 days incubation, read-out: Antiproliferative activity, NSCLC HOP-92. Here is the method: [The procedure below names another cell line; the source lists this cell line under the same test.] as §1, §2

Another experiment has as its system P388D1 (mouse, lymphoma). Nature of the experiment: Cell growth inhibition assay, P388D1. It is filed as cell-based. The settings on record: five days of incubation, XTT; read-out: IC50 P388D1 (ms). On the procedure:
as §3, §4, §5

Experiment [12] relates to brain cancer/tumour cells U87-MG. Kind of experiment: XTT cell proliferation assay, U87-MG. It is filed as cell-based, human. Particulars: 5 days incubation, read-out: Antiproliferative activity, Brain U87-MG. On the procedure: as §1, §2
A further experiment relates to WR19L (mouse, lymphoma). Nature of the experiment: Cell growth inhibition assay, WR19L. It is filed as cell-based. The settings on record: five days of incubation, XTT; read-out: IC50 WR19L (ms). On the procedure:
as §3, §4, §5

In experiment [13] the test system is panel of human and mouse lymphoma cell lines. Nature of the experiment: Cell growth inhibition, whole lymphoma panel (mean IC50, mean rank). It is filed as cell-based. The settings on record: mean over six lymphoma cell lines. Here is the method:
as §3, §5
In vitro potency was assessed using eight exemplary compounds against a panel of human and mouse lymphoma cell lines (Table 4). […] To compare the efficacy of the compounds in cell growth inhibition across the entire panel of cell lines screened, the eight compounds were ranked according to efficacy against each cell line with a numerical value of one indicating most efficacious (lowest IC50 value) and eight being the least efficacious (highest IC50 value).

Experiment [14] deals with human prostate cancer cell DU14. Nature of the experiment: XTT cell proliferation assay, DU14. It is filed as cell-based. Particulars: 5 days incubation, read-out: Antiproliferative activity, Pros. DU14. On the procedure:
as §1, §2

Experiment [15] deals with non-small cell lung cancer cells HOP-62. Nature of the experiment: XTT cell proliferation assay, HOP-62. It is filed as cell-based, human. The settings on record: 5 days incubation, read-out: Antiproliferative activity, NSCLC HOP-62. On the procedure:
[The procedure below names another cell line; the source lists this cell line under the same test.] as §1, §2

Experiment [16] concerns Human Burkitt's lymphoma Raji cells. Kind of experiment: Cell growth inhibition assay, Raji. Particulars: five days of incubation, XTT; read-out: IC50 Raji (hs). It is filed as cell-based. On the procedure: as §3
Human Burkitt's lymphoma Raji cells (ATCC CCL-86) were grown in suspension in Roswell Park Memorial Institute (RPMI) 1640 medium supplemented with 10% fetal bovine serum (FBS), 10 mM HEPES KOH pH 7.4, and 2 mM sodium pyruvate at 37° C. in an atmosphere of 5% CO2 in air. Logarithmically growing cells were routinely sub-cultured twice weekly. Briefly, cells were collected by centrifugation, resuspended in pre-warmed media, and diluted 1:10 into a 75 cm^2 flask.
as §5

In experiment [17] the test system is human Burkitt's lymphoma Ramos cells. Kind of experiment: Cell growth inhibition assay, Ramos. It is filed as cell-based. Particulars: five days of incubation, XTT; read-out: IC50 Ramos (hs). Here is the method: as §3, §4, §5
Experiment [18] concerns human colon carcinoma cells KM12. Nature of the experiment: XTT cell proliferation assay, KM12. It is filed as cell-based. The settings on record: 5 days incubation, read-out: Antiproliferative activity, Colon KM12. Here is the method:
as §1, §2

The conditions of experiment [19]: NCI screen; cited from earlier work.
Experiment [20] concerns Saccharmyces cerevisiae strains that have mutations in genes related to cell cycle control and DNA repair damage. Particulars: Stage0 testing, single concentration, six yeast strains; cited from earlier work.

As for `FC1(F)Oc2ccc(-c3nc4c5cccnc5c5ncccc5c4[nH]3)cc2O1` [Compound 6], the IC50 was 36 nM in experiment [1]; 160 nM in experiment [2]; 170 nM in [3]; 38 nM in experiment [4]; 57 nM with EL4 (mouse, lymphoma); 4.2 nM in experiment [5]. Also, the IC50 amounted to 50 nM in the experiment with leukemia cells HL60; 170 nM in [6]; 210 nM in experiment [7]; 200 nM in experiment [8]; 26 nM in experiment [9]; 30 nM in experiment [10]. Further, the IC50 in experiment [11] is 30 nM; with P388D1 (mouse, lymphoma), 52 nM; in experiment [12] it was 180 nM; with WR19L (mouse, lymphoma) it was below 2.6 nM; in experiment [13], 28 nM; in experiment [14] it was 130 nM. The IC50 in [15] turned out to be 30 nM; in experiment [16], 32 nM; in experiment [17], 18 nM; in experiment [18], 180 nM.
In the case of `FC1(F)Oc2ccc(-c3nc4c5cccnc5c5ncccc5c4[nH]3)cc2O1` [Compound 7], the IC50 is 190 nM in experiment [1]; 320 nM in experiment [2]; 390 nM in experiment [3]; 23 nM in experiment [4]; 470 nM with EL4 (mouse, lymphoma); 7.6 nM in experiment [5]. For the same molecule, the IC50 in the experiment on leukemia cells HL60 was 30 nM; in [6] it was 220 nM; in experiment [7], 200 nM; in experiment [8], 40 nM; in experiment [9], 110 nM; in experiment [10], 160 nM. For the same molecule, the IC50 in [11] stood at 170 nM; with P388D1 (mouse, lymphoma) it was 209 nM; in experiment [12], 40 nM; with WR19L (mouse, lymphoma) it was 12 nM; in experiment [13], 149 nM; in [14] it was 30 nM. Further, the IC50 came to 150 nM in experiment [15], 112 nM in experiment [16], 83 nM in experiment [17] and 400 nM in experiment [18].
Regarding `c1ccc2c(-c3nc4ccccc4[nH]3)cccc2c1` [NCI #144033], the “activity in the In Vivo Anticancer Drug Screen” value in [19] is “None of these three compounds showed any activity”.
Regarding `CN(C)c1ccc(-c2nc3c4ccccc4c4ccccc4c3[nH]2)cc1` [NCI #322334], the “activity in the In Vivo Anticancer Drug Screen” value in experiment [19] is listed as “None of these three compounds showed any activity”.
With `Cc1ccccc1-c1nc2c3ccccc3c3ccccc3c2[nH]1` [NCI #338970], in experiment [19], the “activity in the In Vivo Anticancer Drug Screen” value was “None of these three compounds showed any activity”. In [20], the “activity in the Yeast Anticancer Drug Screen” value is listed as “active”.
